Results as given in the supplement of paper PMC11616607.

Tests used:
Assay in all cases: drug sensitivity score (DSS) from 5-point dose-response viability curve (DSS (area-under-curve based score)); higher = more sensitive (stronger growth inhibition or killing); extreme values may be limits of the assay
Settings in all cases: exposure time: 72 h; concentration range: 5 concentrations over 10,000-fold range
COV362 = test system: COV362
Method in brief: (§1)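 Ovarian cancer and normal ovarian cell lines were tested in 384-well plates. Drugs were acoustically dispensed (Echo 550) in DMSO or water at five concentrations spanning a 10,000-fold range, then 1,500 cells per well were added and incubated 3 days at 37°C, 5% CO2. Viability was read by CellTiter-Glo luminescence on a PHERAstar FS. Drug sensitivity score was derived per cell line and drug with Breeze software; higher means more sensitive, zero means no response.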

HOSE1C = test system: HOSE1C
Method in brief: as §1

Ovsaho = test system: Ovsaho
Method in brief: as §1

OV90 = test system: OV90
Method in brief: as §1

OVCAR8 = test system: OVCAR8
Method in brief: as §1

HOSE2C = test system: HOSE2C
Method in brief: as §1

OVCAR5 = test system: OVCAR5
Method in brief: as §1

CAOV3 = test system: CAOV3
Method in brief: as §1

JHOS2 = test system: JHOS2
Method in brief: as §1

COV318 = test system: COV318
Method in brief: as §1

OVCAR4 = test system: OVCAR4
Method in brief: as §1

Kuramochi = test system: Kuramochi
Method in brief: as §1

SMILES | drug sensitivity score (COV362) | drug sensitivity score (HOSE1C) | drug sensitivity score (Ovsaho) | drug sensitivity score (OV90) | drug sensitivity score (OVCAR8) | drug sensitivity score (HOSE2C) | drug sensitivity score (OVCAR5) | drug sensitivity score (CAOV3) | drug sensitivity score (JHOS2) | drug sensitivity score (COV318) | drug sensitivity score (OVCAR4) | drug sensitivity score (Kuramochi)
O=C(O)CNC(=O)c1c(O)c2ccccc2n(Cc2ccccc2)c1=O [IOX-2] | 0 | 0.1 | 0 | 0 | 0 | 0 | 0 | 0 | 0 | 0 | 0 | 0
CNCc1ccc(-c2[nH]c3cc(F)cc4c3c2CCNC4=O)cc1 [Rucaparib] | 0 | 0 | 0.4 | 1.7 | 1.8 | 0 | 1.2 | 0 | 0.7 | 0.5 | 0 | 0.3
CN(C)C1CCN(C(=O)c2ccc(NC(=O)Nc3ccc(-c4nc(N5CCOCC5)nc(N5CCOCC5)n4)cc3)cc2)CC1 [Gedatolisib] | 4.8 | 17.9 | 13.4 | 15.4 | 7.5 | 13.1 | 12.3 | 10 | 7.4 | 3.2 | 14.8 | 11.4
O=C(O)c1ccc2c(c1)nc(Nc1cccc(Cl)c1)c1ccncc12 [Silmitasertib] | 0.9 | 7.7 | 4.7 | 5.8 | 4.7 | 4.5 | 5.3 | 8.6 | 4.4 | 3.2 | 3.3 | 5.5
CNc1nc(-c2ccc3c(N)n[nH]c3c2)cc(N2C[C@@H](C(=O)NC3CCCCC3)CC[C@H]2C)n1 | 0 | 4.5 | 1.1 | 0 | 1.2 | 2.6 | 0 | 1.9 | 0.7 | 0.1 | 0 | 0.5
C[C@@H](Oc1ccc2[nH]nc(/C=C/c3cnn(CCO)c3)c2c1)c1c(Cl)cncc1Cl | 2.2 | 8.5 | 4.9 | 5.3 | 3.4 | 22.7 | 5.5 | 6.9 | 2 | 2.3 | 2.5 | 1.8
Nc1ccn([C@@H]2O[C@H](CO)[C@@H](O)C2(F)F)c(=O)n1 [Gemcitabine] | 8.1 | 8.2 | 3.3 | 13.5 | 23.6 | 6.7 | 15.5 | 23.6 | 12.7 | 3.5 | 0 | 0
C[C@@H](C(=O)O)c1ccc(-c2ccccc2)c(F)c1 [Tarenflurbil] | 0 | 0 | 0 | 1.3 | 0 | 0 | 0.3 | 0 | 0.7 | 0.3 | 0 | 0
CCN(CC)Cc1ccc2cc(COC(=O)Nc3ccc(C(=O)NO)cc3)ccc2c1 [Givinostat] | 2.2 | 12.3 | 3.2 | 7.7 | 10 | 8.6 | 10.8 | 7.3 | 5.3 | 4.2 | 4.1 | 6.2
Cc1cc(Nc2cc(N3CCN(C)CC3)nc(/C=C/c3ccccc3)n2)n[nH]1 [ENMD-2076] | 6.3 | 7.7 | 8.8 | 8.4 | 8 | 10.3 | 9.6 | 10.3 | 5.1 | 4.9 | 5.8 | 8.5
CC[C@H](NC(=O)[C@H](C)NC)C(=O)N1C[C@@H](O)C[C@H]1Cc1c(-c2[nH]c3cc(F)ccc3c2C[C@@H]2C[C@H](O)CN2C(=O)[C@H](CC)NC(=O)[C@H](C)NC)[nH]c2cc(F)ccc12 [Birinapant] | 0 | 0 | 11.6 | 0.8 | 1.9 | 0 | 0 | 9.2 | 5.6 | 0.2 | 12.6 | 0.4
CNC(=O)c1ccccc1Nc1cc(Nc2ccc(N3CCOCC3)cc2OC)ncc1C(F)(F)F [VS-4718] | 4.1 | 3.6 | 11.4 | 9.2 | 4.4 | 6 | 8 | 6.1 | 5.5 | 5.6 | 6.8 | 11.6
CO[C@H]1C[C@@H]2CC[C@@H](C)[C@@](O)(O2)C(=O)C(=O)N2CCCC[C@H]2C(=O)O[C@H]([C@H](C)C[C@@H]2CC[C@@H](O)[C@H](OC)C2)CC(=O)[C@H](C)/C=C(\C)[C@@H](O)[C@@H](OC)C(=O)[C@H](C)C[C@H](C)/C=C/C=C/C=C/1C [Sirolimus] | 0 | 4.8 | 4.4 | 7.7 | 4 | 0 | 4.3 | 3.9 | 3.6 | 1.2 | 1.9 | 3.8
Cc1nn(C)c(COc2ccc(N3CCN(S(=O)(=O)N(C)C)CC3)cc2)c1-c1cccc2c(CCCOc3cccc4ccccc34)c(C(=O)O)n(CCN3CCOCC3)c12 | 2.8 | 13.7 | 8.6 | 5.7 | 7.4 | 13.7 | 5.2 | 4.9 | 6.3 | 5.4 | 5.1 | 7.8
CCNC(=O)CCC/C=C\C[C@@H]1[C@@H](/C=C/[C@@H](O)CCc2ccccc2)[C@H](O)C[C@@H]1O [Bimatoprost] | 0 | 0 | 0 | 0 | 0 | 0 | 0 | 0 | 0 | 0 | 0 | 0
N#Cc1ccc(COC[C@H]2O[C@@H](n3c(NCc4ccc(Cl)c(Cl)c4)nc4c(N)ncnc43)[C@H](O)[C@@H]2O)cc1 | 0.5 | 2.7 | 4.5 | 3.8 | 5.5 | 5.6 | 4.4 | 3.8 | 1 | 0.1 | 0.3 | 1.4
Cn1cc(CNCC2CCN(c3ncc(C(=O)NO)cn3)CC2)c2ccccc21 [Quisinostat] | 4.5 | 22.9 | 9 | 14.6 | 18.6 | 19 | 19.2 | 11.5 | 8.1 | 4.7 | 8 | 9.2
Nc1nc2[nH]cnc2c(=S)[nH]1 [Thioguanine] | 9.4 | 3.4 | 8 | 6.3 | 12.7 | 2.4 | 13.4 | 11.9 | 2.3 | 0.7 | 9.9 | 7.2
Cc1c(C(=O)Nc2ccc(N3C[C@@H](C)O[C@@H](C)C3)nc2)cccc1-c1ccc(OC(F)(F)F)cc1 [Sonidegib] | 0 | 1.6 | 2.5 | 1.3 | 3.3 | 1.8 | 1.2 | 0 | 2.2 | 2.6 | 0.2 | 4.7
N#Cc1ccc2[nH]c(O)c(-c3ccc(CN4CCOCC4)cn3)c2c1 [AZD-1080] | 0 | 0 | 0 | 0 | 0 | 0.3 | 0 | 0.9 | 0 | 0 | 0 | 0
CC(=O)O[C@H]1C(=O)[C@@]2(C)[C@H]([C@H](OC(=O)c3ccccc3)[C@]3(O)C[C@H](OC(=O)[C@H](O)[C@@H](NC(=O)c4ccccc4)c4ccccc4)C(C)=C1C3(C)C)[C@]1(OC(C)=O)CO[C@@H]1C[C@@H]2O [Paclitaxel] | 8.9 | 25.1 | 11.8 | 14.9 | 27.6 | 25 | 21.4 | 25.9 | 14.4 | 5.7 | 7.8 | 13.8
O=C(c1cc(Cc2n[nH]c(=O)c3ccccc23)ccc1F)N1CCN(C(=O)C2CC2)CC1 [Olaparib] | 0.3 | 0.8 | 2.1 | 5.4 | 4.9 | 2.5 | 2 | 4.7 | 4.6 | 2.9 | 1.9 | 3.4
CN(C)C(=O)c1cc2cnc(Nc3ccc(N4CCNCC4)cn3)nc2n1C1CCCC1 [Ribociclib] | 0 | 0 | 0 | 0.6 | 0 | 0 | 2.3 | 0 | 2.9 | 0.2 | 0.6 | 0
CCCCc1nc2cc(/C=C/C(=O)NO)ccc2n1CCN(CC)CC [Pracinostat] | 5.1 | 22.2 | 10.5 | 14.6 | 19.5 | 18.5 | 20.9 | 13.2 | 13 | 10 | 10.4 | 13.5
COc1cc2ncnc(Oc3cccc(NC(=O)Nc4cc(C(C)(C)C(F)(F)F)on4)c3)c2cc1OC | 0 | 1.3 | 0 | 2.4 | 0 | 0 | 3 | 0 | 1.5 | 0 | 0 | 0.4
CNc1nc(Nc2cn(C(C)(C)C#N)nc2C)ncc1C(F)(F)F [GNE-0877] | 0 | 0 | 0 | 0 | 0 | 0 | 0 | 0 | 0 | 0 | 0 | 0
CC(C)(C#N)c1cc(Cn2cncn2)cc(C(C)(C)C#N)c1 [Anastrozole] | 0 | 0 | 0 | 0 | 0 | 0 | 0 | 0 | 0 | 0 | 0 | 0
Nc1ncnc2c1nc(N)n2[C@@H]1O[C@H](CO)[C@@H](O)[C@H]1O [8-amino-adenosine] | 20.4 | 4.1 | 26 | 20.1 | 20.5 | 4.9 | 23.5 | 22.6 | 28.2 | 15.1 | 19 | 24.5
Cc1cc2c(F)c(Oc3ncnn4cc(OC[C@@H](C)O)c(C)c34)ccc2[nH]1 [Brivanib] | 0 | 0 | 0 | 0 | 0 | 0 | 0 | 0 | 0 | 0 | 0 | 0
CCCC(CCC)C(=O)O [Valproic acid] | 0 | 0 | 0 | 0 | 0 | 0 | 0 | 0 | 0 | 0 | 0 | 0
